Data reported in ChEMBL document CHEMBL1201862, “PubChem BioAssay data set” (2004).
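Assay format: 96-well plates, 48-hour exposure. GI50 is the concentration that inhibits growth by half.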 Activity calls are given as the source filed them. Cut-off read from the data, not from the text of the source: active = GI50 up to about 1.1 µM and inactive = higher.

Assays:
Experiment in all cases: DTP human tumour cell line panel, 48 h
OVCAR-3 = tested on: OVCAR-3
SNB-75 = tested on: SNB-75
A549 = tested on: A549
NCI-H23 = tested on: NCI-H23
COLO 205 = tested on: COLO 205
KM12 = tested on: KM12
MDA-N = tested on: MDA-N
U-251 = tested on: U-251
SK-OV-3 = tested on: SK-OV-3
MCF7 = tested on: MCF7
786-0 = tested on: 786-0
MDA-MB-231 = tested on: MDA-MB-231
HOP-62 = tested on: HOP-62
SK-MEL-28 = tested on: SK-MEL-28
SF-268 = tested on: SF-268
NCI-H460 = tested on: NCI-H460
NCI-H522 = tested on: NCI-H522
A498 = tested on: A498
SF-539 = tested on: SF-539
Hs-578T = tested on: Hs-578T
MOLT-4 = tested on: MOLT-4
IGROV-1 = tested on: IGROV-1
SW-620 = tested on: SW-620
K562 = tested on: K562
UACC-257 = tested on: UACC-257
HCT-116 = tested on: HCT-116
M14 = tested on: M14
HCT-15 = tested on: HCT-15
LOX IMVI = tested on: LOX IMVI
OVCAR-8 = tested on: OVCAR-8
HL-60 = tested on: HL-60
SR = tested on: SR
HOP-92 = tested on: HOP-92
CCRF-CEM = tested on: CCRF-CEM
DU-145 = tested on: DU-145
OVCAR-5 = tested on: OVCAR-5
NCI-H226 = tested on: NCI-H226
TK-10 = tested on: TK-10
MDA-MB-435 = tested on: MDA-MB-435
RPMI-8226 = tested on: RPMI-8226
ACHN = tested on: ACHN
OVCAR-4 = tested on: OVCAR-4
BT-549 = tested on: BT-549
Malme-3M = tested on: Malme-3M
RXF 393 = tested on: RXF 393
SNB-19 = tested on: SNB-19
SK-MEL-2 = tested on: SK-MEL-2
T47D = tested on: T47D
HCC 2998 = tested on: HCC 2998
CAKI-1 = tested on: CAKI-1
EKVX = tested on: EKVX
UO-31 = tested on: UO-31
NCI/ADR-RES = tested on: NCI/ADR-RES
SF-295 = tested on: SF-295
SN12C = tested on: SN12C
PC-3 = tested on: PC-3
HT-29 = tested on: HT-29
SK-MEL-5 = tested on: SK-MEL-5
UACC-62 = tested on: UACC-62

C=C(Cl)C(Cl)(CBr)CCC(Cl)C(C)(C)Cl (centres undefined)
GI50 (OVCAR-3): 1.61 µM (inactive)
GI50 (SNB-75): 0.23 µM (active)
GI50 (A549): 2.96 µM (inactive)
GI50 (NCI-H23): 8.89 µM (inactive)
GI50 (COLO 205): 4.15 µM (inactive)
GI50 (KM12): 0.375 µM (active)
GI50 (MDA-N): 1.81 µM (inactive)
GI50 (U-251): 0.597 µM (active)
GI50 (SK-OV-3): 25.8 µM (inactive)
GI50 (MCF7): 0.879 µM (active)
GI50 (786-0): 0.388 µM (active)
GI50 (MDA-MB-231): 2.16 µM (inactive)
GI50 (HOP-62): 1.11 µM (active)
GI50 (SK-MEL-28): 1.69 µM (inactive)
GI50 (SF-268): 1.08 µM (active)
GI50 (NCI-H460): 1.19 µM (inactive)
GI50 (NCI-H522): 8.2 µM (inactive)
GI50 (A498): 1.77 µM (inactive)
GI50 (SF-539): 0.443 µM (active)
GI50 (Hs-578T): 0.0237 µM (active)
GI50 (MOLT-4): 17.7 µM (inactive)
GI50 (IGROV-1): 6.84 µM (inactive)
GI50 (SW-620): 1.47 µM (inactive)
GI50 (K562): 2.22 µM (inactive)
GI50 (UACC-257): 1.57 µM (inactive)
GI50 (HCT-116): 0.638 µM (active)
GI50 (M14): 17.9 µM (inactive)
GI50 (HCT-15): 3.57 µM
GI50 (LOX IMVI): 12.9 µM (inactive)
GI50 (OVCAR-8): 2.36 µM (inactive)
GI50 (HL-60): 0.713 µM (active)
GI50 (SR): 15.1 µM (inactive)
GI50 (HOP-92): 1.16 µM (inactive)
GI50 (CCRF-CEM): 8.63 µM (inactive)
GI50 (DU-145): 1.35 µM (inactive)
GI50 (OVCAR-5): 2.83 µM (inactive)
GI50 (NCI-H226): 22.2 µM (inactive)
GI50 (TK-10): 1.14 µM (inactive)
GI50 (MDA-MB-435): 2.05 µM (inactive)
GI50 (RPMI-8226): 0.112 µM (active)
GI50 (ACHN): 1.77 µM (inactive)
GI50 (OVCAR-4): 1.09 µM (active)
GI50 (BT-549): 5.47 µM (inactive)
GI50 (Malme-3M): 7.24 µM (inactive)
GI50 (RXF 393): 1.35 µM (inactive)
GI50 (SNB-19): 2.26 µM (inactive)
GI50 (SK-MEL-2): 0.238 µM (active)
GI50 (T47D): 0.256 µM (active)
GI50 (HCC 2998): 4.52 µM (inactive)
GI50 (CAKI-1): 1.08 µM (active)
GI50 (EKVX): 8.38 µM (inactive)
GI50 (UO-31): 2.3 µM (inactive)
GI50 (NCI/ADR-RES): 3.01 µM (inactive)
GI50 (SF-295): 3.17 µM (inactive)
GI50 (SN12C): 7.38 µM (inactive)
GI50 (PC-3): 1.53 µM (inactive)
GI50 (HT-29): 0.331 µM (active)
GI50 (SK-MEL-5): 10.6 µM (inactive)

Nc1nc(Nc2ccccc2)sc1C(=O)c1cccs1
GI50 (OVCAR-3): 3.94 µM (inactive)
GI50 (A549): 14.2 µM (inactive)
GI50 (NCI-H23): 16.2 µM (inactive)
GI50 (COLO 205): 7.06 µM (inactive)
GI50 (KM12): 4.19 µM (inactive)
GI50 (UACC-62): 15.7 µM (inactive)
GI50 (MDA-N): 17.1 µM (inactive)
GI50 (U-251): 15.3 µM (inactive)
GI50 (SK-OV-3): 29.4 µM (inactive)
GI50 (MCF7): 8.13 µM (inactive)
GI50 (786-0): 11.5 µM (inactive)
GI50 (MDA-MB-231): 28.7 µM (inactive)
GI50 (HOP-62): 22.3 µM (inactive)
GI50 (SK-MEL-28): 25.4 µM (inactive)
GI50 (SF-268): 18.2 µM (inactive)
GI50 (NCI-H460): 10.4 µM (inactive)
GI50 (NCI-H522): 11 µM (inactive)
GI50 (A498): 14.6 µM (inactive)
GI50 (SF-539): 10.7 µM (inactive)
GI50 (Hs-578T): 15.8 µM (inactive)
GI50 (MOLT-4): 6.75 µM (inactive)
GI50 (IGROV-1): 11.7 µM (inactive)
GI50 (SW-620): 11.6 µM (inactive)
GI50 (K562): 9.86 µM (inactive)
GI50 (UACC-257): 17.7 µM (inactive)
GI50 (HCT-116): 4.06 µM (inactive)
GI50 (M14): 21.1 µM (inactive)
GI50 (HCT-15): 10.8 µM
GI50 (LOX IMVI): 11.2 µM (inactive)
GI50 (OVCAR-8): 21.1 µM (inactive)
GI50 (HL-60): 3.57 µM (inactive)
GI50 (SR): 1.74 µM (inactive)
GI50 (HOP-92): 30.3 µM (inactive)
GI50 (CCRF-CEM): 2.81 µM (inactive)
GI50 (DU-145): 8.97 µM (inactive)
GI50 (OVCAR-5): 11.7 µM (inactive)
GI50 (NCI-H226): 16.8 µM (inactive)
GI50 (TK-10): 16.4 µM (inactive)
GI50 (MDA-MB-435): 15 µM (inactive)
GI50 (RPMI-8226): 12.8 µM (inactive)
GI50 (ACHN): 16.8 µM (inactive)
GI50 (OVCAR-4): 15.5 µM (inactive)
GI50 (BT-549): 15.2 µM (inactive)
GI50 (Malme-3M): 22.1 µM (inactive)
GI50 (RXF 393): 5.93 µM (inactive)
GI50 (SNB-19): 16.6 µM (inactive)
GI50 (SK-MEL-2): 12.7 µM (inactive)
GI50 (T47D): 21.2 µM (inactive)
GI50 (HCC 2998): 17 µM (inactive)
GI50 (CAKI-1): 14.4 µM (inactive)
GI50 (EKVX): 13.6 µM (inactive)
GI50 (UO-31): 11.5 µM (inactive)
GI50 (NCI/ADR-RES): 21.2 µM (inactive)
GI50 (SF-295): 21.8 µM (inactive)
GI50 (SN12C): 16 µM (inactive)
GI50 (PC-3): 15.9 µM (inactive)
GI50 (HT-29): 5.32 µM (inactive)
GI50 (SK-MEL-5): 4.08 µM (inactive)

CC1(C)N=C(N)N=C(N)N1c1ccc(Cl)cc1
GI50 (SNB-75): > 100 µM (inactive)
GI50 (A549): 0.665 µM (active)
GI50 (NCI-H23): 3.44 µM (inactive)
GI50 (COLO 205): 7.06 µM (inactive)
GI50 (KM12): 8.73 µM (inactive)
GI50 (UACC-62): 4.84 µM (inactive)
GI50 (MDA-N): 1.51 µM (inactive)
GI50 (U-251): 1.3 µM (inactive)
GI50 (SK-OV-3): 27.4 µM (inactive)
GI50 (MCF7): 15.6 µM (inactive)
GI50 (786-0): 0.598 µM (active)
GI50 (MDA-MB-231): 21.7 µM (inactive)
GI50 (HOP-62): 9.02 µM (inactive)
GI50 (SK-MEL-28): 37.1 µM (inactive)
GI50 (SF-268): 0.708 µM (active)
GI50 (NCI-H460): 3.38 µM (inactive)
GI50 (NCI-H522): 3.99 µM (inactive)
GI50 (A498): 58.6 µM (inactive)
GI50 (SF-539): 4.42 µM (inactive)
GI50 (Hs-578T): > 100 µM (inactive)
GI50 (MOLT-4): 1.71 µM (inactive)
GI50 (IGROV-1): 2.23 µM (inactive)
GI50 (SW-620): 1.48 µM (inactive)
GI50 (K562): 0.317 µM (active)
GI50 (UACC-257): 26.5 µM (inactive)
GI50 (HCT-116): 4.17 µM (inactive)
GI50 (M14): 4.88 µM (inactive)
GI50 (HCT-15): 7.11 µM
GI50 (LOX IMVI): 1.34 µM (inactive)
GI50 (OVCAR-8): 0.817 µM (active)
GI50 (HL-60): 15.4 µM (inactive)
GI50 (SR): 1.36 µM (inactive)
GI50 (HOP-92): 24.1 µM (inactive)
GI50 (CCRF-CEM): 2.74 µM (inactive)
GI50 (DU-145): 7.11 µM (inactive)
GI50 (OVCAR-5): 15 µM (inactive)
GI50 (NCI-H226): 85.5 µM (inactive)
GI50 (TK-10): 48.8 µM (inactive)
GI50 (MDA-MB-435): 1.79 µM (inactive)
GI50 (RPMI-8226): 6.81 µM (inactive)
GI50 (ACHN): 5.16 µM (inactive)
GI50 (OVCAR-4): > 100 µM (inactive)
GI50 (BT-549): 26.2 µM (inactive)
GI50 (Malme-3M): 26.2 µM (inactive)
GI50 (RXF 393): 53.2 µM (inactive)
GI50 (SNB-19): 22.6 µM (inactive)
GI50 (SK-MEL-2): 10 µM (inactive)
GI50 (T47D): 35.1 µM (inactive)
GI50 (HCC 2998): 9.02 µM (inactive)
GI50 (CAKI-1): 19.1 µM (inactive)
GI50 (EKVX): 26.7 µM (inactive)
GI50 (UO-31): 47.2 µM (inactive)
GI50 (NCI/ADR-RES): > 100 µM (inactive)
GI50 (SF-295): 3.33 µM (inactive)
GI50 (SN12C): 6.71 µM (inactive)
GI50 (PC-3): 1.88 µM (inactive)
GI50 (HT-29): 2.92 µM (inactive)
GI50 (SK-MEL-5): 8.11 µM (inactive)
